The values that follow come from ChEMBL document CHEMBL5291721, “A preclinical secondary pharmacology resource illuminates target-adverse drug reaction associations of marketed drugs” (Nat Commun, 2023).

The target of experiment [1] is T1, 5-hydroxytryptamine receptor 1A (Homo sapiens, UniProt P08908).
T1 sequence (P08908 whole entry): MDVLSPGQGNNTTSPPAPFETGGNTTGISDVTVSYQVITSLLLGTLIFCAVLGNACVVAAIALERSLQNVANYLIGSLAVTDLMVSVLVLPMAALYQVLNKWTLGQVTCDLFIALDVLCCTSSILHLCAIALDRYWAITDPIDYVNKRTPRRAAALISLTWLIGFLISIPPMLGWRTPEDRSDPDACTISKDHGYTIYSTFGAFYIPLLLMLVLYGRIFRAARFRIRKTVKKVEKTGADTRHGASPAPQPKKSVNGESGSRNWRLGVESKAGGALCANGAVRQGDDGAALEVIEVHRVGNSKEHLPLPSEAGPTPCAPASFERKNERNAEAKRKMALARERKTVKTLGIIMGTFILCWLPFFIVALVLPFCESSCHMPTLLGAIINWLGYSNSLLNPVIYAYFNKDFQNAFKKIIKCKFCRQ

The target of experiment [2] is Gamma-aminobutyric acid receptor subunit alpha-1 (Rattus norvegicus, UniProt P62813).
A further experiment deals with Histamine H3 receptor (Homo sapiens, UniProt Q9Y5N1).
In a further experiment the target is D(3) dopamine receptor (Homo sapiens, UniProt P35462).
Experiment [3] addresses T2, Alpha-2A adrenergic receptor (Homo sapiens, UniProt P08913).
T2 sequence (P08913 whole entry): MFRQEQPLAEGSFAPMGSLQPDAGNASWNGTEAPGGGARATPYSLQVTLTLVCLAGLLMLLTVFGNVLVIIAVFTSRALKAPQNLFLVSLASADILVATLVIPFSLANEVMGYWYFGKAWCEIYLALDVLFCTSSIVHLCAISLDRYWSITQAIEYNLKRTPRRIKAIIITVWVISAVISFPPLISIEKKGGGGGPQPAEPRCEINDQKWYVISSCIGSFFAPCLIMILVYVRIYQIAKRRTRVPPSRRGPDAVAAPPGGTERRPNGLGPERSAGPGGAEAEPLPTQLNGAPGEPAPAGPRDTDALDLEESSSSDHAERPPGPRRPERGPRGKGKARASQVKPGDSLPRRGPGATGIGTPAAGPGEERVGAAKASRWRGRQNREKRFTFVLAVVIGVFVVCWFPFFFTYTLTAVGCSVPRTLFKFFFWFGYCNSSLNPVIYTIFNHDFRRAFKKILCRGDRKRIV

Experiment [4] deals with Sodium-dependent dopamine transporter (Homo sapiens, UniProt Q01959).
Also: assay procedure not described here.

Sequence of Histamine H3 receptor (Q9Y5N1 whole entry): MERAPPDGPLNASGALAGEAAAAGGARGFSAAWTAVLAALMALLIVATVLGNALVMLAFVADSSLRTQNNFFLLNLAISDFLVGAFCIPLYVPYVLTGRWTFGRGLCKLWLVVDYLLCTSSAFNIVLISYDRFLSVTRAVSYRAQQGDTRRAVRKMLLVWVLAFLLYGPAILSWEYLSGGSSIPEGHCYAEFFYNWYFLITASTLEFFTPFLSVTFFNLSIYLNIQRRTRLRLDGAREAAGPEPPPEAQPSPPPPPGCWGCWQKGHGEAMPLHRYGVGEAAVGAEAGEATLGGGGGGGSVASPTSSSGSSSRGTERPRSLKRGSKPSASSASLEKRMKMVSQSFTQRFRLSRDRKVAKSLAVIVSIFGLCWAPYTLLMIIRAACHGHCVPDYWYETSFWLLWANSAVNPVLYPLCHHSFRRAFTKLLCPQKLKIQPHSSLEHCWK
Sequence of D(3) dopamine receptor (P35462 whole entry): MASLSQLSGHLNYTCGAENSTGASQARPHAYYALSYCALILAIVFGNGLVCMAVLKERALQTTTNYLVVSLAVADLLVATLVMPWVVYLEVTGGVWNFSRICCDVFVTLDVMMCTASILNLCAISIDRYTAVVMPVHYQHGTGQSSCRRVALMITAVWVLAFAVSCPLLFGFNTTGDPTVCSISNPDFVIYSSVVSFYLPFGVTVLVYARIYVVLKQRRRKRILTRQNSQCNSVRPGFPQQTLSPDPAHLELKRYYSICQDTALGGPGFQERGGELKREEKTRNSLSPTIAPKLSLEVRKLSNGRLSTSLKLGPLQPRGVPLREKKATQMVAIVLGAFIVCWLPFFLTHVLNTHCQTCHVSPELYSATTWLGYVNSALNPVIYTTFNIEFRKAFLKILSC
Sequence of Gamma-aminobutyric acid receptor subunit alpha-1 (P62813 whole entry): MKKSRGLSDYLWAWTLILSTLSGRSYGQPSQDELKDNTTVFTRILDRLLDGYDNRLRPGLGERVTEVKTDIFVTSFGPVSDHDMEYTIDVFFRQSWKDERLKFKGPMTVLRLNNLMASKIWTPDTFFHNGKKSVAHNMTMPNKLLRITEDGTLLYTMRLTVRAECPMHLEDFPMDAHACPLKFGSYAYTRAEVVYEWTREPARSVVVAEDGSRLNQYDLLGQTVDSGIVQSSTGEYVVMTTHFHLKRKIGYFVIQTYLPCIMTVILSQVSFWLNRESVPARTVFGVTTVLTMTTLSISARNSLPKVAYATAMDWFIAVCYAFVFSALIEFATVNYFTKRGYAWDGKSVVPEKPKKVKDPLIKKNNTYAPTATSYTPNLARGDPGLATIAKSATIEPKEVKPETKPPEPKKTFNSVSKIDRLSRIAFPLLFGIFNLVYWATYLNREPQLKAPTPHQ
Sequence of Sodium-dependent dopamine transporter (Q01959 whole entry): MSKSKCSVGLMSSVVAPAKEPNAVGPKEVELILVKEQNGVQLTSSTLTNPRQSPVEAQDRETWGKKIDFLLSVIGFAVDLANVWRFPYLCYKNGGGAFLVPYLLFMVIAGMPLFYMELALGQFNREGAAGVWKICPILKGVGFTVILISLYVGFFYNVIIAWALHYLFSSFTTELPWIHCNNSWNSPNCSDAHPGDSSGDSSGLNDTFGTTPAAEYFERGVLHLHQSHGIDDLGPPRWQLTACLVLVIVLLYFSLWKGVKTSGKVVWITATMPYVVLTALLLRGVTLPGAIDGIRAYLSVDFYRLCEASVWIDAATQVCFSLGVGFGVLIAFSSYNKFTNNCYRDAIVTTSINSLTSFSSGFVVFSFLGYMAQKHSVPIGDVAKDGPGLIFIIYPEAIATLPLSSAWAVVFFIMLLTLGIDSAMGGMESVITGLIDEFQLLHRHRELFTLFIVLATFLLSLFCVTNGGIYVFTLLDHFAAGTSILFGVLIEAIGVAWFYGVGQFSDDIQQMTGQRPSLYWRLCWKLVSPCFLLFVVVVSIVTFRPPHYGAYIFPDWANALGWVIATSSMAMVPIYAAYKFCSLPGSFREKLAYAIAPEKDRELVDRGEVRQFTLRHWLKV

With `Nc1ccc(C(=O)O)cc1` [AMINOBENZOIC ACID], the AC50 (in experiment [1]; in experiment [2]; at Histamine H3 receptor; on D(3) dopamine receptor; in experiment [3]) was over 30 µM throughout.

With `CCS(=O)(=O)N1CC(CC#N)(n2cc(-c3ncnc4[nH]ccc34)cn2)C1` [BARICITINIB], the AC50 (in experiment [1]; in experiment [2]; at Histamine H3 receptor; on D(3) dopamine receptor; in experiment [3]) was over 30 µM in each case.

Take `O=C1CN=C(c2ccccc2)c2c(sc3c2CCCC3)N1` [BENTAZEPAM]: the AC50 in experiment [1] is 1.55 µM; on Histamine H3 receptor it was over 30 µM; on D(3) dopamine receptor, over 30 µM; in experiment [3] it was 23.9 µM.

On to `O=C(O)CCCN1CCC(O[C@@H](c2ccc(Cl)cc2)c2ccccn2)CC1` [BEPOTASTINE], for which the AC50 (in experiment [1]; in experiment [2]; at Histamine H3 receptor; at D(3) dopamine receptor; in experiment [3]) was over 30 µM each time.

As for `CCCCN(CCCC)CCCOC(=O)c1ccc(N)cc1` [BUTACAINE], the AC50 was 2.97 µM in experiment [1]; over 30 µM in experiment [2]; over 30 µM at Histamine H3 receptor; 5.52 µM at D(3) dopamine receptor; over 30 µM in experiment [3].

As to `CCCC[N+]1(C)[C@@H]2C[C@@H](OC(=O)[C@H](CO)c3ccccc3)C[C@H]1[C@@H]1O[C@@H]12` (stereo partly specified) [BUTYLSCOPOLAMINE], the AC50 (in experiment [1]; in experiment [2]; at Histamine H3 receptor; on D(3) dopamine receptor; in experiment [3]) was over 30 µM each time.

On to `NCc1ccccc1CC(=O)N[C@@H]1C(=O)N2C(C(=O)O)=C(CSc3nnnn3CC(=O)O)CS[C@H]12` [CEFORANIDE], for which the AC50 in experiment [1] was over 30 µM; in experiment [2] it was over 30 µM; at Histamine H3 receptor, over 10 µM; at D(3) dopamine receptor, over 30 µM; in experiment [3] it was over 30 µM.

As to `O=C(c1ccc(F)c(F)c1Nc1ccc(I)cc1F)N1CC(O)([C@@H]2CCCCN2)C1` [COBIMETINIB], the AC50 in experiment [1] was over 30 µM; in experiment [2] it was over 30 µM; on Histamine H3 receptor it was over 30 µM; at D(3) dopamine receptor, 24.1 µM; in experiment [3], over 30 µM.

In the case of `NS(=O)(=O)c1cc2c(cc1Cl)NC(C1CC3C=CC1C3)NS2(=O)=O` (stereo unspecified) [CYCLOTHIAZIDE], the half-maximal activity concentration (AC50) (in experiment [1]; in experiment [2]; at Histamine H3 receptor; in experiment [3]) was over 30 µM throughout.

Turning to `CCOC(=O)C(c1c(O)c2ccccc2oc1=O)c1c(O)c2ccccc2oc1=O` [ETHYL BISCOUMACETATE], the AC50 (in experiment [1]; in experiment [2]; at Histamine H3 receptor; on D(3) dopamine receptor; in experiment [3]) was over 30 µM throughout.

Turning to `Cc1nc(-c2ccc(OCC(C)C)c(C#N)c2)sc1C(=O)O` [FEBUXOSTAT], the AC50 (in experiment [1]; in experiment [2]; at Histamine H3 receptor; at D(3) dopamine receptor; in experiment [3]) was over 30 µM each time.

`O=C1NCC2(CCN(CCc3ccccc3)CC2)O1` [FENSPIRIDE]: the AC50 was over 30 µM in experiment [1]; 25.2 µM in experiment [2]; over 30 µM on Histamine H3 receptor; over 30 µM at D(3) dopamine receptor; 8.2 µM in experiment [3].

On to `CC(C)=CCC1C(=O)N(c2ccccc2)N(c2ccccc2)C1=O` [FEPRAZONE], for which the AC50 (in experiment [1]; in experiment [2]; at Histamine H3 receptor; at D(3) dopamine receptor; in experiment [3]) was over 30 µM throughout.

For `C[C@@H]1C[C@H]2[C@@H]3C[C@H](F)C4=CC(=O)C(Cl)=C[C@]4(C)[C@@]3(F)[C@@H](O)C[C@]2(C)[C@@]1(O)C(=O)CO` [HALOMETASONE], the AC50 (in experiment [1]; in experiment [2]; at Histamine H3 receptor; in experiment [3]) was over 30 µM throughout.

For the compound `CCC(Cc1c(I)cc(I)c(N)c1I)C(=O)O` (stereo unspecified) [IOPANOIC ACID], the AC50 (in experiment [1]; in experiment [2]; on Histamine H3 receptor; on D(3) dopamine receptor; in experiment [3]) was over 30 µM in each case.

`O=C(NC1CCN(CCCCC2(C(=O)NCC(F)(F)F)c3ccccc3-c3ccccc32)CC1)c1ccccc1-c1ccc(C(F)(F)F)cc1` [LOMITAPIDE]: the AC50 in experiment [1] was over 30 µM; in experiment [2], over 30 µM; at Histamine H3 receptor it was over 30 µM; on D(3) dopamine receptor, 1.76 µM; in experiment [3], 13.2 µM.

For `CCOC(=O)CC(SP(=S)(OC)OC)C(=O)OCC` (stereo unspecified) [MALATHION], the AC50 (in experiment [1]; in experiment [2]; on Histamine H3 receptor; at D(3) dopamine receptor; in experiment [3]) was over 30 µM in each case.

With `CC(=O)O[C@]1(C(C)=O)CC[C@H]2[C@@H]3C[C@H](C)C4=CC(=O)CC[C@]4(C)[C@H]3CC[C@@]21C` [MEDROXYPROGESTERONE ACETATE], the AC50 in experiment [1] is over 30 µM; in experiment [2], 13.4 µM; at Histamine H3 receptor, over 30 µM; in experiment [4], over 30 µM; on D(3) dopamine receptor it was over 30 µM; in experiment [3], over 30 µM.

Take `CCC1(c2cccc(O)c2)CCCCN(C)C1` (stereo unspecified) [MEPTAZINOL]: the AC50 (in experiment [1]; in experiment [2]; at Histamine H3 receptor; at D(3) dopamine receptor; in experiment [3]) was over 30 µM throughout.

In the case of `C1N2CN3CN1CN(C2)C3` [METHENAMINE], the AC50 (in experiment [1]; in experiment [2]; on Histamine H3 receptor; on D(3) dopamine receptor; in experiment [3]) was over 30 µM in each case.

As to `Cn1cc[nH]c1=S` [METHIMAZOLE], the concentration at half-maximal activity (AC50) (in experiment [1]; in experiment [2]; on Histamine H3 receptor; on D(3) dopamine receptor; in experiment [3]) was over 30 µM throughout.

Turning to `CO[C@@]12[C@H](COC(N)=O)C3=C(C(=O)C(C)=C(N)C3=O)N1C[C@@H]1N[C@@H]12` [MITOMYCIN], the AC50 (in experiment [1]; in experiment [2]; at Histamine H3 receptor; at D(3) dopamine receptor; in experiment [3]) was over 30 µM throughout.

As to `O=[N+]([O-])c1cncn1CCN1CCOCC1` [NIMORAZOLE], the AC50 (in experiment [1]; in experiment [2]; on Histamine H3 receptor; at D(3) dopamine receptor; in experiment [3]) was over 30 µM in each case.

As to `NC(=O)c1cccc2cn(-c3ccc([C@@H]4CCCNC4)cc3)nc12` [NIRAPARIB], the half-maximal activity concentration (AC50) in experiment [1] is over 30 µM; in experiment [2], over 30 µM; on Histamine H3 receptor, 26 µM; at D(3) dopamine receptor, over 30 µM; in experiment [3] it was over 30 µM.

`CCC1C(C)=NN=C(c2ccc(OC)c(OC)c2)c2cc(OC)c(OC)cc21` (stereo unspecified) [TOFISOPAM]: the AC50 (in experiment [1]; in experiment [2]; on Histamine H3 receptor; in experiment [3]) was over 30 µM throughout.

Consider `COc1cc(NCc2ccc3nc(N)nc(N)c3c2C)cc(OC)c1OC` [TRIMETREXATE], for which the half-maximal activity concentration (AC50) in experiment [1] was 8.06 µM; in experiment [2], over 30 µM; at Histamine H3 receptor it was over 30 µM; on D(3) dopamine receptor it was 2.67 µM; in experiment [3], over 30 µM.

With `COc1cc2c(cc1OC)[C@H]1C[C@@H](OC(=O)[C@@H](N)C(C)C)[C@H](CC(C)C)CN1CC2` [VALBENAZINE], the AC50 (in experiment [2]; on Histamine H3 receptor; on D(3) dopamine receptor; in experiment [3]) was over 30 µM each time.
